Test results: patent publication US9573954B2, “Pyrazolopyrimidine compounds” (University Health Network, priority 2012, dated 2017)

How the values were obtained:
human TTK = target: T1, human TTK (Homo sapiens, UniProt P33981); assay: TTK inhibition assay (indirect ELISA); format: biochemical; details: 100 μM ATP; read-out: TTK IC50 Range
T1 construct: Active TTK was purchased from Invitrogen as an amino terminal GST fusion of full length human TTK; purchased Invitrogen
T1 sequence (P33981 1-857): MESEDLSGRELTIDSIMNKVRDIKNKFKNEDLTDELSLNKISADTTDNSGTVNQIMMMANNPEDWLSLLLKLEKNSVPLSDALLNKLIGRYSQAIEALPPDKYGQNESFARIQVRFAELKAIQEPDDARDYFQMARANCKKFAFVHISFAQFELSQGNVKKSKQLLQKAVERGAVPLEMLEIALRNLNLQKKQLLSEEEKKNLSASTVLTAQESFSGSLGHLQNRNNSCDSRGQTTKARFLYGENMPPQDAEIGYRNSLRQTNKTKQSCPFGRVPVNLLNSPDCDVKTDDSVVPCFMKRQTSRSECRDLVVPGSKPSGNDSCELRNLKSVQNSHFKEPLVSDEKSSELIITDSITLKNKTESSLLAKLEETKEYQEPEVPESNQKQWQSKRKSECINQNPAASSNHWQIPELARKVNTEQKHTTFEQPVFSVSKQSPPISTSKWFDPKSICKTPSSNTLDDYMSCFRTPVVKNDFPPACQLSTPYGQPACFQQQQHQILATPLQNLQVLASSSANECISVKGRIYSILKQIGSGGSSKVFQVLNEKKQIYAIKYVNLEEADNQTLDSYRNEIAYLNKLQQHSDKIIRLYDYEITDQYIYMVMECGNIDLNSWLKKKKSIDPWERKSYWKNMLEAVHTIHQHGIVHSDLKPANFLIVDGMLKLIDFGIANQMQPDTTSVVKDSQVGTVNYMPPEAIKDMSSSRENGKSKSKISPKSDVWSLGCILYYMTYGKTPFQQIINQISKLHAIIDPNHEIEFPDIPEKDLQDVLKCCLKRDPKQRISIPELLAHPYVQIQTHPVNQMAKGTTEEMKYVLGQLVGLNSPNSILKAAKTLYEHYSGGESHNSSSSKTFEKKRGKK
How it was run: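 Activity detected by indirect ELISA after compounds sat with full-length GST-TTK for 5 min prior to starting the reaction with ATP. IC50 came from a four-parameter logistic curve of % inhibition, calculated against background and uninhibited control wells.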

[1] = system: colon cancer cells (HCT116); assay: Cancer cell line growth inhibition, Sulforhodamine B assay, HCT116; format: cell-based; details: Homo sapiens, HCT-116, HCT116 colon cancer cell line; read-out: Cancer Cell Line GI50 Range HCT116
How it was run: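 HCT116 cells, 1000–4000 per well, seeded 24 h ahead, then treated 5 days with compound at 10 nM to 50 μM final in DMEM with 10% FBS. Growth measured by sulforhodamine B staining after TCA fixation, A570; GI50 from inhibition relative to DMSO-only cells.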

[2] = system: breast cancer cells (MDA-MB-468); assay: Cancer cell line growth inhibition, Sulforhodamine B assay, MDA-MB-468; format: cell-based; details: Homo sapiens, MDA-MB-468, MDA-MB-468 breast cancer cell line; read-out: Cancer Cell Line GI50 Range MDA-MB-468
How it was run: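 MDA-MB-468 cells exposed 5 days to compound at final 10 nM to 50 μM in DMEM with 10% FBS. Growth measured by sulforhodamine B protein staining after TCA fixation, absorbance 570 nm; inhibition relative to DMSO-only cells, GI50 determined for cytotoxic compounds.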

[3] = system: ovarian cancer cells (OVCAR-3); assay: Cancer cell line growth inhibition, Sulforhodamine B assay, OVCAR-3; format: cell-based; details: Homo sapiens, OVCAR-3, OVCAR-3 ovarian cancer cell line; read-out: Cancer Cell Line GI50 Range OVCAR-3
How it was run: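 OVCAR-3 cells were seeded 24 h before compound addition, then exposed for 5 days to final concentrations of 10 nM to 50 μM in DMEM with 10% FBS. Growth was measured by TCA fixation and sulforhodamine B staining with absorbance at 570 nm. Inhibition was relative to DMSO-only cells, and GI50 came from curve fitting.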

SMILES | IC50 (human TTK) [nM] | GI50 [1] [nM] | GI50 [2] [nM] | GI50 [3] [nM]
Cc1cc(-c2cnn3c(NCC4CCOCC4)cc(N[C@H]4CCOC4)nc23)ccc1C(=O)NC1CC1 [Example C138] | < 100 | ≤ 100 | 100 to 500 | 100 to 500
Cc1cc(-c2cnn3c(NCC4CCOCC4)cc(NC4(CO)CC4)nc23)ccc1C(=O)NC1CC1 [Example C139] | < 100 | 100 to 500 | 100 to 500 | 100 to 500
Cc1cc(-c2cnn3c(NCC4CCOCC4)cc(NC4CC5(COC5)C4)nc23)ccc1C(=O)NC1CC1 [Example C141] | < 100 | ≤ 100 | 100 to 500 | 100 to 500
Cc1cc(-c2cnn3c(NCC4(F)CCN(C)CC4)cc(Oc4cccnc4)nc23)ccc1C(=O)NC1CC1 [Example C147] | < 100 | 100 to 500 | 100 to 500 | > 500
Cc1cc(-c2cnn3c(NCC4CC4)cc(Oc4cccnc4)nc23)ccc1C(=O)NC1CC1 [Example C152] | < 100 | ≤ 100 | ≤ 100 | ≤ 100
Cc1cc(-c2cnn3c(NCC4CC4)cc(NC4CCOCC4)nc23)ccc1C(=O)NC1CC1 [Example C153] | < 100 | ≤ 100 | 100 to 500 | 100 to 500
Cc1cc(-c2cnn3c(NC[C@H]4C[C@@H](O)C4)cc(Oc4cccnc4)nc23)ccc1C(=O)NC1CC1 [Example C159] | < 100 | ≤ 100 | ≤ 100 | ≤ 100
Cc1cc(-c2cnn3c(NCC4(F)CCN(C)CC4)cc(NC4CCCC4)nc23)ccc1C(=O)NC1CC1 [Example C170] | < 100 | 100 to 500 | 100 to 500 | > 500
Cc1cc(-c2cnn3c(NC[C@H]4C[C@H](O)C4)cc(NC4CCCC4)nc23)ccc1C(=O)NC1CC1 [Example C172] | < 100 | ≤ 100 | ≤ 100 | ≤ 100

More lines, now with the values ahead:

IC50 (human TTK) [nM] | GI50 [1] [nM] | GI50 [2] [nM] | GI50 [3] [nM] | SMILES
100 to 500 | > 500 | > 500 | > 500 | Cc1cc(-c2cnn3c(NCC4CCOCC4)cc(N4CC[C@H](O)C4)nc23)ccc1C(=O)NC1CC1 [Example C143]
< 100 | 100 to 500 | 100 to 500 | > 500 | Cc1cc(-c2cnn3c(NCC4CC4)cc(NC4(CO)CCCC4)nc23)ccc1C(=O)NC1CC1 [Example C148]
< 100 | ≤ 100 | 100 to 500 | 100 to 500 | Cc1cc(-c2cnn3c(NCC4CCOCC4)cc(-c4ccnn4C)nc23)ccc1C(=O)NC1CC1 [Example C151]
< 100 | 100 to 500 | 100 to 500 | 100 to 500 | Cc1cc(-c2cnn3c(NC[C@H]4C[C@@H](O)C4)cc(NC4CCOCC4)nc23)ccc1C(=O)NC1CC1 [Example C156]
< 100 | ≤ 100 | ≤ 100 | ≤ 100 | Cc1cc(-c2cnn3c(NCC(C)C)cc(N[C@H]4CCCC[C@H]4O)nc23)ccc1C(=O)NC1CC1 [Example C157]
< 100 | ≤ 100 | 100 to 500 | 100 to 500 | Cc1cc(-c2cnn3c(NCC(C)C)cc(N[C@H](CO)C(C)C)nc23)ccc1C(=O)NC1CC1 [Example C158]
< 100 | ≤ 100 | 100 to 500 | 100 to 500 | Cc1cc(-c2cnn3c(NCC4CCOCC4)cc(N4CCC[C@H]4CO)nc23)ccc1C(=O)NC1CC1 [Example C161]
< 100 | ≤ 100 | 100 to 500 | 100 to 500 | Cc1cc(-c2cnn3c(NCC4CCOCC4)cc(N[C@H](CO)C4CCCCC4)nc23)ccc1C(=O)NC1CC1 [Example C163]
< 100 | 100 to 500 | 100 to 500 | > 500 | Cc1cc(-c2cnn3c(NCC4CCOCC4)cc(N4CCC[C@@H]4CO)nc23)ccc1C(=O)NC1CC1 [Example C164]
< 100 | 100 to 500 | > 500 | > 500 | Cc1cc(-c2cnn3c(NCC4(F)CCNCC4)cc(NC4CCCC4)nc23)ccc1C(=O)NC1CC1 [Example C169]
